Here are results for 25 molecules from patent publication US10981894B2, “Melanocortin subtype-2 receptor (MC2R) antagonists and uses thereof” (Crinetics Pharmaceuticals, Inc., priority 2018, dated 2021).

Sequence of hMC2 receptor (Q01718 whole entry): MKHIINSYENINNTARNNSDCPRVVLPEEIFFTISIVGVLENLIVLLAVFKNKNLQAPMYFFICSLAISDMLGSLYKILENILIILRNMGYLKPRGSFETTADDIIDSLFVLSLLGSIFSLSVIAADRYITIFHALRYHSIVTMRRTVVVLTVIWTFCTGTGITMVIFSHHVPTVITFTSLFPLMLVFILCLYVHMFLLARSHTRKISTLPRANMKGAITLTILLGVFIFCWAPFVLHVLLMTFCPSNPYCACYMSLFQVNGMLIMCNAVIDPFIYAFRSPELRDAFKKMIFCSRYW
Sequence of hMC2 receptor (Q8TCY5 whole entry partner): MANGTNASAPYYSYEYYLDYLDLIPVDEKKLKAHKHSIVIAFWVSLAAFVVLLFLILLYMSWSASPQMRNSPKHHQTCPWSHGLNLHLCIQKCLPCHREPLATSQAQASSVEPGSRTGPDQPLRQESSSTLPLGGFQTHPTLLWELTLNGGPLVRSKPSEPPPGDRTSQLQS

In the assay the target is hMC2 receptor (Homo sapiens, UniProt Q01718). As to the kind of experiment: hMC2 membrane binding assay ([125I]ACTH (1-39) Tyr23, SPA). Also on record: scale not given here. The following applies: crude hMC2R membranes from CRE-bla-CHO-K1 cells expressing hMC2 receptor and hMRAP; [125I]ACTH (1-39) Tyr23 0.2 nM; 1.5 hours at room temperature; read-out: MC2R binding potency. In a few lines:
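Ki comes from non-linear regression of SPA scintillation counts. Displacement of 0.2 nM [125I]ACTH(1-39) Tyr23 by compound dose series (usually 0–10,000 nM final) ran 1.5 h at room temperature. Membranes came from CHO-K1 CRE-bla cells stably expressing hMC2R plus hMRAP, bead-coupled in pH 7.4 buffer with 0.2% BSA.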
With `CCOc1ncccc1-c1ccc(N2CCN(C(=O)C3(C(F)(F)F)CCCC3)C[C@H]2CC)c(C(=O)N[C@@H]2CCN(C)C2)n1` [Compound 1-255, 2′-ethoxy-5-[(2R)-2-ethyl-4-[1-(trifluoromethyl)cyclopentanecarbonyl]piperazin-1-yl]-N-[(3R)-1-methylpyrrolidin-3-yl]-[2,3′-bipyridine]-6-carboxamide], the Ki is < 10 nM. Next, `CCOc1ncccc1-c1ccc(N2CCN(C(=O)c3ccccc3C(F)(F)F)C[C@H]2CC)c(C(=O)NCCN)c1` [Compound 1-62, N-(2-aminoethyl)-5-(2-ethoxypyridin-3-yl)-2-[(2R)-2-ethyl-4-[2-(trifluoromethyl)benzoyl]piperazin-1-yl]benzamide]: < 10 nM. To `CCOc1ncccc1-c1ccc(N2CCN(C(=O)C3(C(F)(F)F)CCCC3)C[C@H]2CC)c(C(=O)NCCN2CCC2)n1` [Compound 1-337, N-[2-(azetidin-1-yl)ethyl]-2′-ethoxy-5-[(2R)-2-ethyl-4-[1-(trifluoromethyl)cyclopentanecarbonyl]piperazin-1-yl]-[2,3′-bipyridine]-6-carboxamide] belongs < 10 nM; to `CCOc1ncccc1-c1ccc(N2CCN(C(=O)c3ccc(Cl)cc3C(F)(F)F)C[C@H]2CC)c(C(=O)NCC2=NCCN2C)n1` [Compound 1-227, 5-[(2R)-4-[4-chloro-2-(trifluoromethyl)benzoyl]-2-ethylpiperazin-1-yl]-2′-ethoxy-N-[(1-methyl-4,5-dihydro-1H-imidazol-2-yl)methyl]-[2,3′-bipyridine]-6-carboxamide], < 10 nM; to `CCOc1ncccc1-c1ccc(N2CCN(C(=O)N3CCC[C@H]3C(F)(F)F)C[C@H]2CC)c(C(=O)N[C@@H]2CCN(C)C2)n1` [Compound 1-372, 2′-ethoxy-5-[(2R)-2-ethyl-4-[(2S)-2-(trifluoromethyl)pyrrolidine-1-carbonyl]piperazin-1-yl]-N-[(3R)-1-methylpyrrolidin-3-yl]-[2,3′-bipyridine]-6-carboxamide], < 10 nM. As for `CCOc1ccccc1-c1ccc(N2CCN(C(=O)N3CCc4cccc(C#N)c43)C[C@H]2CC)c(C(=O)NC2CN(C)C2)n1` [Compound 1-414, 3-[(2R)-4-(7-cyano-2,3-dihydro-1H-indole-1-carbonyl)-2-ethylpiperazin-1-yl]-6-(2-ethoxyphenyl)-N-(1-methylazetidin-3-yl)pyridine-2-carboxamide], the Ki is < 10 nM. Next, `CCOc1ncccc1-c1ccc(N2CCN(C(=O)c3ccc(Cl)cc3C(F)(F)F)C[C@H]2CC)c(C(=O)NCCc2ncc[nH]2)c1` [Compound 1-93, 2-[(2R)-4-[4-chloro-2-(trifluoromethyl)benzoyl]-2-ethylpiperazin-1-yl]-5-(2-ethoxypyridin-3-yl)-N-[2-(1H-imidazol-2-yl)ethyl]benzamide]: < 10 nM; `CCOc1ncccc1-c1ccc(N2CCN(C(=O)c3ccc(Cl)cc3C(F)(F)F)C[C@H]2CC)c(C(=O)NCCN)c1` [Compound 1-37, N-(2-aminoethyl)-2-[(2R)-4-[4-chloro-2-(trifluoromethyl)benzoyl]-2-ethylpiperazin-1-yl]-5-(2-ethoxypyridin-3-yl)benzamide]: < 10 nM. For `CCOc1ncccc1-c1ccc(N2CCN(C(=O)N3CCc4cccc(C(F)(F)F)c43)C[C@H]2CC)c(C(=O)N[C@H]2CCN(C)C2)n1` [Compound 1-389, 2′-ethoxy-5-[(2R)-2-ethyl-4-[7-(trifluoromethyl)-2,3-dihydro-1H-indole-1-carbonyl]piperazin-1-yl]-N-[(3S)-1-methylpyrrolidin-3-yl]-[2,3′-bipyridine]-6-carboxamide], the Ki is < 10 nM. Next, `CCOc1ccc(C(=O)N2CCN(c3ccc(-c4cccnc4OCC)nc3C(=O)NC3CN(C)C3)[C@H](CC)C2)c(C(F)(F)F)n1` [Compound 1-233, 2′-ethoxy-5-[(2R)-4-[6-ethoxy-2-(trifluoromethyl)pyridine-3-carbonyl]-2-ethylpiperazin-1-yl]-N-(1-methylazetidin-3-yl)-[2,3′-bipyridine]-6-carboxamide]: < 10 nM. Next, `CCOc1ncccc1-c1ccc(N2CCN(C(=O)c3ccc(F)cc3C(F)F)C[C@H]2CC)c(C(=O)N[C@@H]2CCNC2)n1` [Compound 1-278, 5-[(2R)-4-[2-(difluoromethyl)-4-fluorobenzoyl]-2-ethylpiperazin-1-yl]-2′-ethoxy-N-[(3R)-pyrrolidin-3-yl]-[2,3′-bipyridine]-6-carboxamide]: < 10 nM. In the case of `CCOc1ccccc1-c1ccc(N2CCN(C(=O)N3CCc4cccc(C(F)(F)F)c43)C[C@H]2CC)c(C(=O)N[C@H]2CCN(C)C2)n1` [Compound 1-402, 6-(2-ethoxyphenyl)-3-[(2R)-2-ethyl-4-[7-(trifluoromethyl)-2,3-dihydro-1H-indole-1-carbonyl]piperazin-1-yl]-N-[(3S)-1-methylpyrrolidin-3-yl]pyridine-2-carboxamide], the Ki is < 10 nM. In the case of `CCOc1ncccc1-c1ccc(N2CCN(C(=O)N3CCc4cc(F)cc(Cl)c43)C[C@H]2CC)c(C(=O)NC2CN(C)C2)n1` [Compound 1-420, 5-[(2R)-4-(7-chloro-5-fluoro-2,3-dihydro-1H-indole-1-carbonyl)-2-ethylpiperazin-1-yl]-2′-ethoxy-N-(1-methylazetidin-3-yl)-[2,3′-bipyridine]-6-carboxamide], the Ki is < 10 nM. Turning to `CCOc1ncccc1-c1ccc(N2CCN(C(=O)c3ccc(C)cc3N3CCC(CN)C3)C[C@H]2CC)c(C(=O)NCCN)c1` (stereo partly drawn) [Compound 1-104, N-(2-aminoethyl)-2-[(2R)-4-{2-[3-(aminomethyl)pyrrolidin-1-yl]-4-methylbenzoyl}-2-ethylpiperazin-1-yl]-5-(2-ethoxypyridin-3-yl)benzamide], the Ki is < 10 nM. On to `CCOc1ncccc1-c1ccc(N2CCN(C(=O)c3ccc(Cl)cc3C(F)(F)F)C[C@H]2CC)c(C(=O)NC[C@H]2CCCN2)c1` [Compound 1-108, 2-[(2R)-4-[4-chloro-2-(trifluoromethyl)benzoyl]-2-ethylpiperazin-1-yl]-5-(2-ethoxypyridin-3-yl)-N-{[(2R)-pyrrolidin-2-yl]methyl}benzamide], for which the Ki was < 10 nM. To `CCOc1ncccc1-c1ccc(N2CCN(C(=O)c3ccc(F)cc3Cl)C[C@H]2CC)c(C(=O)NCCN)c1` [Compound 1-38, N-(2-aminoethyl)-2-[(2R)-4-(2-chloro-4-fluorobenzoyl)-2-ethylpiperazin-1-yl]-5-(2-ethoxypyridin-3-yl)benzamide] belongs < 10 nM; to `CCOc1ncccc1-c1ccc(N2CCN(C(=O)N3CCc4cc(F)cc(Cl)c43)C[C@H]2CC)c(C(=O)N[C@H]2CCN(C)C2)n1` [Compound 1-419, 5-[(2R)-4-(7-chloro-5-fluoro-2,3-dihydro-1H-indole-1-carbonyl)-2-ethylpiperazin-1-yl]-2′-ethoxy-N-[(3S)-1-methylpyrrolidin-3-yl]-[2,3′-bipyridine]-6-carboxamide], < 10 nM. Next, `CCOc1ncccc1-c1ccc(N2CCN(C(=O)N3CCC[C@H]3c3cccc(F)c3)C[C@H]2CC)c(C(=O)N[C@@H]2CCN(C)C2)n1` [Compound 1-381, 2′-ethoxy-5-[(2R)-2-ethyl-4-[(2S)-2-(3-fluorophenyl)pyrrolidine-1-carbonyl]piperazin-1-yl]-N-[(3R)-1-methylpyrrolidin-3-yl]-[2,3′-bipyridine]-6-carboxamide]: < 10 nM; `CCOc1ncccc1-c1ccc(N2CCN(C(=O)c3ccc(Cl)cc3C#N)C[C@H]2CC)c(C(=O)N[C@@H]2CCNC2)c1` [Compound 1-142, 2-[(2R)-4-(4-chloro-2-cyanobenzoyl)-2-ethylpiperazin-1-yl]-5-(2-ethoxypyridin-3-yl)-N-[(3R)-pyrrolidin-3-yl]benzamide]: < 10 nM. `CCOc1ncccc1-c1ccc(N2CCN(C(=O)O[C@@H](C(C)(C)C)C(F)(F)F)C[C@H]2CC)c(C(=O)N[C@@H]2CCN(C)C2)n1` (single isomer, unassigned) [Compound 1-407]: the Ki is < 10 nM. Turning to `CCOc1ccccc1-c1ccc(N2CCN(C(=O)c3ccc(OC)nc3C(F)(F)F)C[C@H]2CC)c(C(=O)N[C@@H]2CCN(C)C2)n1` [Compound 1-253, 6-(2-ethoxyphenyl)-3-[(2R)-2-ethyl-4-[6-methoxy-2-(trifluoromethyl)pyridine-3-carbonyl]piperazin-1-yl]-N-[(3R)-1-methylpyrrolidin-3-yl]pyridine-2-carboxamide], the Ki was < 10 nM. Next, `CCOc1ncccc1-c1ccc(N2CCN(C(=O)c3ccc(C(F)(F)F)nc3N(C)C)C[C@H]2CC)c(C(=O)NCCN)c1` [Compound 1-76, N-(2-aminoethyl)-2-[(2R)-4-[2-(dimethylamino)-6-(trifluoromethyl)pyridine-3-carbonyl]-2-ethylpiperazin-1-yl]-5-(2-ethoxypyridin-3-yl)benzamide]: < 10 nM.

Turning to `CCOc1ncccc1-c1ccc(N2CCN(C(=O)c3ccc(C)cc3N3CC[C@H](NC)C3)C[C@H]2CC)c(C(=O)NCCN)c1` [Compound 1-67, N-(2-aminoethyl)-5-(2-ethoxypyridin-3-yl)-2-[(2R)-2-ethyl-4-{4-methyl-2-[(3S)-3-(methylamino)pyrrolidin-1-yl]benzoyl}piperazin-1-yl]benzamide], the Ki was < 10 nM. On to `CCOc1ncccc1-c1ccc(N2CCN(C(=O)c3ccc(Cl)cc3Cl)C[C@H]2CC)c(C(=O)NCCNC)c1F` [Compound 1-156, 6-[(2R)-4-(2,4-dichlorobenzoyl)-2-ethylpiperazin-1-yl]-3-(2-ethoxypyridin-3-yl)-2-fluoro-N-[2-(methylamino)ethyl]benzamide], for which the Ki was < 10 nM. Consider `CC[C@@H]1CN(C(=O)c2ccc(C(F)(F)F)cc2Cl)CCN1c1ccc(-c2ccccc2COC)cc1C(=O)NCCN` [Compound 1-16, (R)-N-(2-aminoethyl)-4-(4-(2-chloro-4-(trifluoromethyl)benzoyl)-2-ethylpiperazin-1-yl)-2′-(methoxymethyl)-[1,1′-biphenyl]-3-carboxamide], for which the Ki lay within 10 to 100 nM.
